Assay results reported in publication PMC6789111, “Crossing the blood-brain-barrier with nanoligand drug carriers self-assembled from a phage display peptide” (Nature Communications, 2019).
Read-outs that look alike come from different tables or passages of the source. Peptide text beside a SMILES is read from it. * marks the point of attachment. 5FAM = O=C1OC2(c3ccc(O)cc3Oc3cc(O)ccc32)c2ccc(C(=O)*)cc21

How the values were obtained:
[1] = system: hCMEC/D3 cell monolayer; experiment: Transwell in vitro BBB model; type: cell-based, human
Description: For the construction of the in vitro BBB model, hCMEC/D3 cells were seeded on rat tail collagen-coated polycarbonate membranes (Transwell, No. 3401 Costar; Corning, Wiesbaden, Germany; 0.4 μm pore size; 1.13 cm^2 growth area) with a density of 100,000 cells cm^−2. Every three days the cell medium was change. In general after 7 days growth, the cells reached confluence. The transendothelial electrical resistance (TEER) and cell layer capacitance (CCL), which reflects the membrane surface area of the hCMEC/D3 cell monolayer, were measured using CellZscope system (NanoAnalytics, Münster, Germany). Cells with CCL values in the range of 0.5–5.0 μF cm^−2 indicate cell confluence and validate TEER values were selected for the transfer experiments. NLCs at different concentrations were introduced in to the apical side of the BBB model. The TEER values were measured during the incubation. After 24 h of incubation, the media from basal and apical sides were sampled and analysed for fluorescent measurement. CD31 and paracellular adherens (β-catenin) junctions were assessed by immunofluorescence labeling directly on the cell monolayer attached to the transwell membrane. Briefly, cells were fixed by 4% v/v paraformaldehyde for 10 min, rinsed and then permeabilised with 0.5% (v/v) Triton X-100 for 10 min. After rinsing samples were blocked by 5% w/v BSA for 1 h, followed by incubation with primary antibodies (rabbit polyclonal to CD31, rabbit polyclonal to anti-β-catenin) in 1% w/v BSA overnight at 4 °C. […] After rinsing, the red fluorescence from tight junction proteins was observed by a Leica AF6000LX microscope equipped with a 63 × objective using ×1.6 magnifications. […]
formation of multiple cell-layers was sometime observed from day 7 onward. […] TEER values and its corresponding capacitance were recorded after the introduction of peptide for 24 h. (d) & (e) Staining and quantification of endothelial cells (CD31) and adheren β-catenin markers confirming the presence of a functional tight junction before and after NLC ( 5 µM) challenge. […]

[2] = Blood clearance after intravenous injection; type: in vivo, ICR mice; details: Cy5.5 peptide i.v., Ave
Description: (§1) The final concentration of the peptide conjugate was 10 µM and that of siRNA was 48 nM based on blood volume calculation equivalent to 6% of the body weight. At different time points blood samples were collected via retro-orbital blood collection. For whole animal imaging system mice were anaesthetised with isoflurane and in vivo fluorescence images were taken (IVIS 200 Spectrum, USA), at different time points. At 4 h post administration, mice were sacrificed, and the liver, lungs, kidneys, spleen, pancreas and brain were collected and stored in liquid nitrogen. The organs were homogenised (FastPrep-24™ 5G Instrument, MP Biomedicals, USA) and the levels of peptide and siRNA were measured in a fluorescence spectrometer (Fluotime 300, Picoquant, Berlin, Germany) using a standard curve.

[3] = Brain level after intravenous injection; type: in vivo, ICR mice; details: for Brain level (% of injected dose): Cy5.5 peptide i.v., Ave
Description: as §1, with “At 4 h post administration, mice were sacrificed, and the liver, lungs, kidneys, spleen, pancreas and brain were collected and stored in liquid nitrogen.” left out

[4] = system: hCMEC/D3 cells; experiment: Uptake with internalisation inhibitors; details: 37 °C
Description: The medium was then removed and replaced with a fresh medium containing NLCs and the corresponding inhibitor. After 8 h of incubation at 37 °C, cells were washed three times with cell medium and analysed by FACS. Cell viability at the end of each experiment was >90% as determined by Trypan Blue exclusion test. The following inhibitors were used: 2-deoxy-D-glucose (1 mM)/sodium azide (1 mM) as energy-dependent inhibitors, worthmanin (10 μM) as macropinocytosis inhibitor, chloropromazine (30 μM) as clathrin-dependent endocytosis inhibitor, N-ethylmaleimide (5 μM) as caveolae-dependent endocytosis and transcytosis inhibitor and indomethacin (200 μM) as caveolae-dependent endocytosis inhibitor.

[5] = system: BACE1; experiment: In vivo BACE1 silencing, Western blot; set-up: species or system ICR mice; details: for BACE1 expression level: 72 nM siRNA
Description: For in vivo BACE1 silencing, 20 ICR mice were randomly divided into five groups (4 mice in each group) and administrated intravenously with either 72 nM siControl/FAM-CGY or BACE1 siRNA (final concentration, 72 nM) or 72 nM siControl/FAM-CGY scramble peptide1 or 48 nM BACE1 siRNA/FAM-CGY or 72 nM BACE1 siRNA/FAM-CGY, respectively. The final concentration of peptide was 10 μM. […] The frozen brain tissues (80–90 mg) were homogenized in RIPA lysis buffer (Beyotime, China) and centrifuged at 18,000 × g, 4 °C for 15 min. Protein concentration of the supernatant was determined using the BCA Protein Assay Kit. Equal amounts of protein from each sample were loaded on SDS-PAGE gels (4–15%) for the determination with level of the target protein determined by Western blotting using the anti-BACE1 antibody (1:1000 dilution) and detected with HRP-Goat-anti-rabbit) IgG (H + L) secondary antibody (1:3000).

[6] = Blood count after intravenous injection; type: in vivo, ICR mice; details: mouse, in vivo, iv
Description: Supplementary Table 2. Blood count following intravenous injection of FAM-CGY NLCs in free form and complexed with siRNA
Samples WBC RBC HGB HCT MCV MCH MCHC PLT
WBC: white blood cell; RBC: red blood cell count; HGB: haemoglobin; HCT: haematocrit; MCV: mean corpuscular volume; MCH: mean corpuscular haemoglobin; MCHC: mean corpuscular
significance (*p < 0.05). The results are mean ± s.d. (n = 3 animals per group). The experiment was repeated twice with identical results. The siRNA represent BACE-1-specific siRNA. The
final concentration of the peptide conjugate was 10 µM and that of siRNA was 48 nM, based on blood volume calculation equivalent to 6% of the body weight. LPS = lipopolysaccharide.

Compound	Blood level (% of injected dose) ([2]; 0.25 h)	Blood level (% of injected dose) ([2]; 0.50 h)	Blood level (% of injected dose) ([2]; 1.00 h)	Blood level (% of injected dose) ([2]; 4.00 h)	Blood level (% of injected dose) ([2]; 12.00 h)	Blood level (% of injected dose) ([2]; 24.00 h)	Brain level (% of injected dose) ([3]; 0.25 h)	Brain level (% of injected dose) ([3]; 0.50 h)	Brain level (% of injected dose) ([3]; 1.00 h)	Brain level (% of injected dose) ([3]; 4.00 h)	Brain level (% of injected dose) ([3]; 12.00 h)	Brain level (% of injected dose) ([3]; 24.00 h)	also measured
O=C(O)c1ccc2c(c1)C(=O)OC21c2ccc(O)cc2Oc2cc(O)ccc21 [5-FAM, 5-carboxy-fluorescein, reference compound]													transport across the hCMEC/D3 monolayer [1]: neither the fluorophor 5-FAM nor the scrambled peptide showed notable transport
CC[C@H](C)[C@H](NC(=O)[C@H](CC(N)=O)NC(=O)[C@H](Cc1c[nH]cn1)NC(=O)[C@@H](NC(=O)[C@@H]1CCCN1C(=O)[C@H](CCCNC(=N)N)NC(=O)[C@H](Cc1ccc(O)cc1)NC(=O)CNC(=O)[C@H](CS)NC(=O)c1ccc2c(c1)C(=O)OC21c2ccc(O)cc2Oc2cc(O)ccc21)C(C)C)C(=O)NCC(=O)N[C@@H](Cc1c[nH]cn1)C(=O)N[C@@H](Cc1c[nH]c2ccccc12)C(=O)N[C@@H](CCCNC(=N)N)C(=O)N[C@@H](C)C(=O)N1CCC[C@H]1C(=O)NCC(=O)O [FAM-CGY scrambled 1] (5FAM-CGYRPVHNIGHWRAPG-OH)													transport across the hCMEC/D3 monolayer ([1]; apical to basal, 24 h, fluorescence): neither the fluorophor 5-FAM nor the scrambled peptide showed notable transport
Cy5.5- CGYRPVHNIGHWRAPG [Cy5.5-CGY scrambled 1]	65.67 % of injected dose	27.80 % of injected dose	11.82 % of injected dose	6.91 % of injected dose	3.51 % of injected dose	1.61 % of injected dose	0.74 % of injected dose	1.20 % of injected dose	1.71 % of injected dose	1.92 % of injected dose	1.01 % of injected dose	0.39 % of injected dose	brain accumulation ([3]; i.v., mice): poorly accumulates in the brain
Cy5.5-CGYRPVHNIRGHWAPG	77.38 % of injected dose	31.74 % of injected dose	14.16 % of injected dose	12.22 % of injected dose	6.13 % of injected dose	1.31 % of injected dose	2.16 % of injected dose	3.71 % of injected dose	5.40 % of injected dose	5.73 % of injected dose	3.72 % of injected dose	1.71 % of injected dose	peak brain level ([3]; 4 h after i.v., corrected for the blood content): 5.7 % of the injected dose
Transferrin: Texas Red-labelled transferrin, TfR substrate, positive control [reference compound]													Mean flouresence (%), uptake vs Control (no inhibitor) ([4]; CPZ (chloropromazine 30 μM), 8 h, replicate 1): 55.06%; Mean flouresence (%), uptake vs Control (no inhibitor) ([4]; CPZ (chloropromazine 30 μM), 8 h, replicate 2): 58.26%; Mean flouresence (%), uptake vs Control (no inhibitor) ([4]; CPZ (chloropromazine 30 μM), 8 h, replicate 3): 48.74%; Mean flouresence (%), uptake vs Control (no inhibitor) ([4]; DOG+NaN3 (1 mM/1 mM), 8 h, replicate 2): 38.57%; Mean flouresence (%), uptake vs Control (no inhibitor) ([4]; DOG+NaN3 (1 mM/1 mM), 8 h, replicate 3): 34.62%; Mean flouresence (%), uptake vs Control (no inhibitor) ([4]; DOG+NaN3 (2-deoxy-D-glucose 1 mM/sodium azide 1 mM), 8 h, replicate 1): 42.26%; Mean flouresence (%), uptake vs Control (no inhibitor) ([4]; IMC (indomethacin 200 μM), 1 h pre-treatment + 8 h, FACS, FAM-CGY NLC 5 µM or Texas Red-transferrin 5 µg per well, replicate 1): 102.05%; Mean flouresence (%), uptake vs Control (no inhibitor) ([4]; IMC (indomethacin 200 μM), 8 h, replicate 2): 90.27%; Mean flouresence (%), uptake vs Control (no inhibitor) ([4]; NEM (N-ethylmaleimide 5 μM), 8 h, replicate 1): 86.23%; Mean flouresence (%), uptake vs Control (no inhibitor) ([4]; NEM (N-ethylmaleimide 5 μM), 8 h, replicate 2): 95.58%; Mean flouresence (%), uptake vs Control (no inhibitor) ([4]; NEM (N-ethylmaleimide 5 μM), 8 h, replicate 3): 86.57%; Mean flouresence (%), uptake vs Control (no inhibitor) ([4]; WOR (worthmanin 10 μM), 8 h, replicate 1): 112.26%; Mean flouresence (%), uptake vs Control (no inhibitor) ([4]; WOR (worthmanin 10 μM), 8 h, replicate 2): 98.26%; Mean flouresence (%), uptake vs Control (no inhibitor) ([4]; WOR (worthmanin 10 μM), 8 h, replicate 3): 108.61%
siBACE1: sense 5′-GCUUUGUGGAGAUGGUGGATT-3′, antisense 5′-UCCACCAUCUCCACAAAGCTT-3′; siRNA of Supplementary Table 2 (chemistry not given here)													BACE1 expression level ([5]; 48 h after i.v., siControl = 100.00, Ave.): 101.87; BACE1 expression level ([5]; 48 h after i.v., siControl = 100.00, experiment 2): 94.53; BACE1 expression level ([5]; 48 h after i.v., siControl = 100.00, experiment 3): 102.52; BACE1 expression level ([5]; peptide 10 μM where present, single i.v., 48 h, FAM-CGY+72 nM siControl = 100.00, experiment 1): 108.56; pharmacological activity in hippocampus ([5]; i.v. BACE1 siRNA in free form or with FAM-SP1): no pharmacological activity; WBC [6]: 4.54±0.30 (×109)L-1
